Like-named read-outs stand apart in the source and are kept apart here.

Assay [1] concerns the target human BCL6 BTB domain (Homo sapiens, UniProt P41182). Description: BCL6 TR-FRET assay. The class given is binding. As for the experimental part: 1. Supplementary experimental: protein production, purification and crystallography 1.1 BCL6 constructs used for assays and crystallography […]
cleavage site. For the TR-FRET assay, the Trx-6His-HRV3C-BCL6 protein construct was used without cleaving the tag, as a 6His was needed to bind to the anti-6His-Terbium antibody. […]
For both plasmid constructs described above, transformed BL21-AI E. coli cells were grown in LB media […]
Expression was carried out at 18 °C for 18 hours. Cells were harvested by centrifugation (5500 g for 30 minutes at 4 °C) and stored at -80 °C.
Cells were re-suspended in a buffer composed of 20 mM Tris pH 8, 250 mM NaCl, 1 mM MgCl2, 0.5 mM […]
lysed by sonication followed by centrifugation at 21,000 g for 45 minutes at 4 °C. […]
ResourceQ and gel filtration using a HiLoad 26/60 Superdex75 column in a buffer containing 20 mM HEPES […]
The final protein was assessed for purity and molar mass by SDS-PAGE and high-resolution mass spectrometry, respectively.
For the uncleaved Trx-6His-HRV3C-BCL6 protein construct to be used in TR-FRET, the protein was directly eluted from the HisTrap FF column without HRV-3C treatment, and submitted to Superdex75 gel filtration […]
Test compounds in DMSO or DMSO alone […]
concentration in 0.7% v/v DMSO final. […]
In general terms: In TR-FRET formats the signal depends on donor and acceptor labels being close together.

Assay [2] concerns the target T1, HTR3A (Homo sapiens, UniProt P46098).
T1 sequence (P46098 24-478): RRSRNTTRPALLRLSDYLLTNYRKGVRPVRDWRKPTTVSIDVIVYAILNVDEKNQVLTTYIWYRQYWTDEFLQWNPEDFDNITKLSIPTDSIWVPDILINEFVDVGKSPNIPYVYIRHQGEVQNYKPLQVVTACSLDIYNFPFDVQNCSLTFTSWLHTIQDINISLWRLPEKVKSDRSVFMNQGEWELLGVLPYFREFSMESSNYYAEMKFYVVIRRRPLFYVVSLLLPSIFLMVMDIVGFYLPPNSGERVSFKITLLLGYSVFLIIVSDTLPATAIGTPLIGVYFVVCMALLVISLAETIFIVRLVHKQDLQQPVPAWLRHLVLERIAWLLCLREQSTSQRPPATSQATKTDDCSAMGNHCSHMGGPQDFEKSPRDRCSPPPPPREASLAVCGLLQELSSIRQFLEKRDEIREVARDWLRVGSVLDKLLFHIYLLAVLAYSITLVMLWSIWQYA
Nature of the assay: SAFETYscan Ion Channel HTR3A Opener. The format is cell-based. The text has this: Supplement jm3c00155_si_002.xlsx, sheet "SAFETYScan" | column: RC50 (uM); Max Response

With `Cn1c(=O)c2c(c3cc(Nc4ccnc(F)c4Cl)ccc31)N[C@@H](C1CC1)C(F)(F)CO2` [compound 17, (S)-10-((3-chloro-2-fluoropyridin-4-yl)amino)-2-cyclopropyl-3,3-difluoro-7-methyl-1,2,3,4-tetrahydro-[1,4]oxazepino[2,3-c]quinolin-6(7H)-one], the “BCL6 TR-FRET pIC50 mean” value in assay [1] (Table S1) worked out at 8.2095. Moreover, in assay [1] (Table S1, read-out: BCL6 TR-FRET IC90 Geometric Mean), the concentration for an effect of 90% (IC90) (usually the point of the concentration-response curve where the effect stands at 90%) worked out at 56.7 nM. Besides, the IC50 – broadly, the concentration that gives 50% inhibition – in assay [1] (geometric mean of at least three replicates, read-out: BCL6 TR-FRET IC50) was 6 nM; in assay [1] (supplement, read-out: BCL6 TR-FRET IC50 Geometric Mean), 6.2 nM. For the same compound, the concentration giving a half-maximal response (EC50) (as a rule, the midpoint of the concentration-response curve) in assay [2] is more than 10 µM. Moreover, the Emax in assay [2] (HTR3A, Ion Channel, Opener, read-out: Max Response) was found to be 0%.

For the origin of these results see article PMC10150366, “Discovery of an In Vivo Chemical Probe for BCL6 Inhibition by Optimization of Tricyclic Quinolinones” (Journal of Medicinal Chemistry, 2023).
